For orientation: IC50 means the concentration needed to halve the response being measured.

The text below walks through data of patent publication US10246448B2, “4-hydroxy-2-phenyl-1,3-thiazol-5-yl methanone derivatives as TRPM8 antagonists” (DOMPÉ FARMACEUTICI S.P.A., priority 2015, dated 2019).

Data set [1] can be described thus: Metabolic stability in rat microsomes, Phase II assay. It is filed as in vitro ADME. The conditions noted are these: pH 7.4; rat liver microsomes 0.5 mg/mL, Alamethicin activated, UDPGA, compound 1 μM, 37° C.; read-out: Metabolic Stability (t1/2, min) Phase2. As for the experimental part:
Rat liver microsomes (0.5 mg/mL final conc.) were incubated in ice for 15 min in 50 mM potassium phosphate buffer pH 7.4, 3 mM MgCl2 and activated with Alamethicin 50 μg/mg microsomal protein. Samples were transferred at 37° C. and compounds 1, 2, 8 and 9, dissolved in DMSO, were added in duplicate at the final concentration of 1 μM. After 5 min, reaction is started by adding 25 μl of UDPGA (16.15 mg/ml in 0.2% Sodium Bicarbonate). Samples were taken at time 0, 10, 20, 30 and 60 min added to 150 μl of acetonitrile with Verapamil 0.02 uM as Internal Standard (IS) to stop the reaction. After centrifugation the supernatants were analysed by LC-MS/MS. 7-Hydroxycoumarin was added as reference standard.
(Microsomes from liver hold many membrane-bound enzymes, among them those of drug oxidation.)

Data set [2] in a line: Metabolic stability in rat microsomes, Phase I assay. Format: in vitro ADME. The note with it: for intrinsic clearance half-life (in words): metabolic stability in rat microsomes; for half-life at 1 μM: pH 7.4, rat liver microsomes 0.5 mg/ml, compound 1 μM, NADP cofactors mixture, 37° C., read-out: Metabolic Stability (t1/2, min) Phase1. The procedure: Compounds 1, 2, 8 and 9 in duplicate were dissolved in DMSO and pre-incubated, at the final concentration of 1 μM, for 10 min at 37° C. in potassium phosphate buffer 50 mM pH 7.4, 3 mM MgCl2, with rat liver microsomes (Xenotech) at the final concentration of 0.5 mg/ml.
After the pre-incubation period, reactions were started by adding the cofactors mixture (NADP, Glc6P, Glc6P-DH in 2% Sodium bicarbonte); samples (50 μl) were taken at time 0, 10, 20, 30 and 60 min added to 150 μl of acetonitrile with Verapamil 0.02 μM as Internal Standard (IS) to stop the reaction. After centrifugation the supernatants were analysed by LC-MS/MS.
A control sample without cofactors was added in order to check the stability of test compounds in the matrix after 60 min. 7-Ethoxycoumarin and propranolol were added as reference standards.

Data set [3] addresses T1, human TRPM8 (Homo sapiens, UniProt Q7Z2W7). Nature of the data set: In vitro TRPM8 assay: intracellular calcium levels, Ca2+ sensitive fluorescent dye (FLIPR), agonist Icilin or Cooling Agent 10. Format: cell-based. On the set-up: expressed in transfected cells. The conditions noted are these: HEK-293 cells stably expressing human TRPM8. As for the experimental part: The TRPM8 antagonistic activity of all 26 compounds was determined by measuring changes in intracellular calcium levels using a Ca^+2 sensitive fluorescent dye. The experiments were performed using HEK-293 cells stably expressing the human TRPM8. Cells were seeded 10000 cells/well in 384 plates coated by Poly-D-Lysine MATRIX black/clear bottom (Thermo Scientific, Waltham, Mass. USA) in complete medium and grown overnight at 37° C., 5% CO2. 24 h after seeding, cell culture media was removed, cells were washed with Tyrode's assay buffer and then loaded with the fluorescent Ca^+2 indicator Fluo-4 NW dye (Molecular Probes, Life Technologies, Paisley, UK) supplemented with water-soluble Probenecid (Molecular Probes). Dye loaded cell plates were incubated for 1 h at room temperature. The compounds or vehicle were added and the kinetic response was monitored by a fluorimetric imaging plate ([…]; Molecular Devices, Sunnyvale, Calif., USA) over a period of five minutes (300 seconds). A second injection 5 minutes later of the reference agonist Cooling Agent 10 or Icilin at EC80 concentration was performed. The signal of the emitted fluorescence was recorded during additional three minutes. Data were analyzed by Spotfire DecisionSite version 9.1.1. The bioactivity exerted by the compounds or vehicle was expressed as a percent inhibition and IC50 values were then calculated.
Background: Calcium assays in cells follow changes in intracellular calcium, usually with a dye or a luminescent sensor.

Data set [4] deals with T1, human TRPM8. The experiment in a line: In vitro cold stimulation assay.
Experimental: The TRPM8 antagonisticic activity of all 26 compounds was determined in an in vitro cold stimulation assay.
3-4 days after seeding (˜80% confluent cells), the medium was removed and cells were loaded by a solution of Screen Quest™ Fluo-8 NW dye (ABS Bioquest, Sunnyvale, Calif., USA) in the dark. Dye-loaded cell flasks were incubated for 45 minutes at room temperature in the dark and the Fluo-8 NW solution was then removed and cells were seeded in the 96 Assay Plates (MicroAmp™ Optical 96-Well Reaction Plates; Applied Biosystems, Life technologies) at 100,000 cells/'well (20 μl/well). […] All data point determinations were performed in duplicate before a mean value was calculated, including error bars representing the standard error of the mean.
Setting [5] is: agonist Cooling Agent 10 at EC80, read-out: Ca2+ (IC50 μM) Cool 10.
Setting [6] is: agonist Icilin at EC80, read-out: Ca2+ (IC50 μM) Icilin.

T1 sequence (Q7Z2W7 whole entry): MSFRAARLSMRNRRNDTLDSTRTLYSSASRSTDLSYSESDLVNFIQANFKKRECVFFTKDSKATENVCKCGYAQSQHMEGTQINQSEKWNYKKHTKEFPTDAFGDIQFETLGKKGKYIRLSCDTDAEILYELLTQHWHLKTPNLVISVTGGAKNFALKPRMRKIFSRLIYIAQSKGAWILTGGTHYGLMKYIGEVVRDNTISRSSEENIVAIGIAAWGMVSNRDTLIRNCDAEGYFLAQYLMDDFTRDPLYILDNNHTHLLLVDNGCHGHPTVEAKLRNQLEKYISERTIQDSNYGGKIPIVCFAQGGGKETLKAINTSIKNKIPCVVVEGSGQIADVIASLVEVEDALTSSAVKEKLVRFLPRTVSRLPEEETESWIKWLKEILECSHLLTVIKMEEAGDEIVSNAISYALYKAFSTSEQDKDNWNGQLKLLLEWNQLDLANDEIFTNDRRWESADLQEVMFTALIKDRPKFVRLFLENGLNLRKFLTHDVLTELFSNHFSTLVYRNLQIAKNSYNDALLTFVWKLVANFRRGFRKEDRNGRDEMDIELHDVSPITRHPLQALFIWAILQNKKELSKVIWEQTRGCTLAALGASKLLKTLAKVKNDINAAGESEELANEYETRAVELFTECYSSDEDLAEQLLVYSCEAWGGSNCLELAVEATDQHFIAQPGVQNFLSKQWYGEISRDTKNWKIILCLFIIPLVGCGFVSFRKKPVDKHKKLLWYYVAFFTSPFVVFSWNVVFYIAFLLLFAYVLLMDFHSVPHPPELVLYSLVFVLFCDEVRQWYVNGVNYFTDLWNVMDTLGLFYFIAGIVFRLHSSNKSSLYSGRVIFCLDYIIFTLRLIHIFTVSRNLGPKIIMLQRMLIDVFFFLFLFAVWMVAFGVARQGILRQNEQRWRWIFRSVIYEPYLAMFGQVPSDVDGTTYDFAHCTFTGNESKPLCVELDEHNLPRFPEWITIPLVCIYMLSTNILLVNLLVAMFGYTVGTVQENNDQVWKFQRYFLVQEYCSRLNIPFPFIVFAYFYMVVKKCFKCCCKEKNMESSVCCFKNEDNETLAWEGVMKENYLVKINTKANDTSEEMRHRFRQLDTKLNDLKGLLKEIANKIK

In the case of `O=C(c1sc(-c2cccc(F)c2)nc1O)N1CCCO1` [Example 1, [2-(3-fluorophenyl)-4-hydroxy-1,3-thiazol-5-yl](1,2-oxazolidin-2-yl)methanone], the half-life at 1 μM in data set [1] is 120 min; in data set [2], 185 min. The “intrinsic clearance half-life (in words)” value in data set [2] is listed as “highest intrinsic clearance half-life”.

In the case of `O=C(c1sc(-c2ccccc2O)nc1O)N1CCCO1` [Example 2, [4-hydroxy-2-(2-hydroxyphenyl)-1,3-thiazol-5-yl](1,2-oxazolidin-2-yl)methanone], the values for the half-life at 1 μM in data set [1] and in data set [2] were 86 min and 97 min, respectively. Also, the IC50 stood at 0.011 µM at human TRPM8 [3] (setting [5]), 0.012 µM at human TRPM8 [3] (setting [6]) and 5.5 nM against human TRPM8 [4]. The “intrinsic clearance half-life (in words)” value in data set [2] is recorded as “highest intrinsic clearance half-life”.

`O=C(c1sc(-c2cccc(F)c2)nc1O)N1CCOC1` [Example 3, [2-(3-fluorophenyl)-4-hydroxy-1,3-thiazol-5-yl](1,3-oxazolidin-3-yl)methanone]: the figures for the half-life at 1 μM in data set [1] and in data set [2] were 55 min and 78 min, respectively.

Consider `O=C(c1sc(-c2ccccc2O)nc1O)N1CCOC1` [Example 4, [4-hydroxy-2-(2-hydroxyphenyl)-1,3-thiazol-5-yl](1,3-oxazolidin-3-yl)methanone], for which the half-life at 1 μM in data set [1] worked out at 41 min; in data set [2] it was 64 min. Moreover, the results for the 50% inhibitory concentration (IC50) at human TRPM8 [3] (setting [5]), at human TRPM8 [3] (setting [6]) and against human TRPM8 [4] were 0.104 µM, 0.122 µM and 39 nM, respectively.

Take `O=C(c1sc(-c2cccc(F)c2)nc1O)C1CCCO1` (stereo not drawn) [Example 5, [2-(3-fluorophenyl)-4-hydroxy-1,3-thiazol-5-yl](oxolan-2-yl)methanone]: the half-life at 1 μM is 45 min in data set [1] and 52 min in data set [2]. For the same compound, the results for the IC50 at human TRPM8 [3] (setting [5]), at human TRPM8 [3] (setting [6]) and at human TRPM8 [4] were 0.326 µM, 0.362 µM and 124 nM, respectively.

As for `O=C(c1sc(-c2ccccc2O)nc1O)C1CCCO1` (stereo not drawn) [Example 6, [4-hydroxy-2-(2-hydroxyphenyl)-1,3-thiazol-5-yl](oxolan-2-yl)methanone], the results for the half-life at 1 μM in data set [1] and in data set [2] were 33 min and 56 min, respectively. Besides, the IC50 was 0.401 µM at human TRPM8 [3] (setting [5]), 0.452 µM on human TRPM8 [3] (setting [6]) and 230 nM at human TRPM8 [4].

On to `O=C(c1sc(-c2cccc(F)c2)nc1O)N1CCCC1` [Example 7, [2-(3-fluorophenyl)-4-hydroxy-1,3-thiazol-5-yl](pyrrolidin-1-yl)methanone], for which the results for the half-life at 1 μM in data set [1] and in data set [2] were 51 min and 46 min, respectively. Further, the 50% inhibitory concentration (IC50) stood at 1.36 µM on human TRPM8 [3] (setting [5]), 1.56 µM at human TRPM8 [3] (setting [6]) and 1230 nM at human TRPM8 [4].

Take `O=C(c1sc(-c2ccccc2O)nc1O)N1CCCCO1` [Example 8, [4-hydroxy-2-(2-hydroxyphenyl)-1,3-thiazol-5-yl](1,2-oxazinan-2-yl)methanone]: the half-life at 1 μM was found to be 43 min in data set [1] and 102 min in data set [2]. In addition, the “intrinsic clearance half-life (in words)” value in data set [2] is “highest intrinsic clearance half-life”.

`O=C(c1sc(-c2cccc(F)c2)nc1O)N1CCCCO1` [Example 9, [2-(3-fluorophenyl)-4-hydroxy-1,3-thiazol-5-yl](1,2-oxazinan-2-yl)methanone]: the half-life at 1 μM in data set [1] was 51 min; in data set [2], 98 min. Further, the IC50 came out at 0.167 µM on human TRPM8 [3] (setting [5]), 0.123 µM on human TRPM8 [3] (setting [6]) and 8 nM at human TRPM8 [4]. The “intrinsic clearance half-life (in words)” value in data set [2] is listed as “highest intrinsic clearance half-life”.

In the case of `O=C(c1sc(-c2cccc(F)c2)nc1O)N1CCCOC1` [Example 10, [2-(3-fluorophenyl)-4-hydroxy-1,3-thiazol-5-yl](1,3-oxazinan-3-yl)methanone], the half-life at 1 μM in data set [1] amounted to 46 min; in data set [2], 55 min. The IC50 at human TRPM8 [3] (setting [5]) was 0.256 µM; at human TRPM8 [3] (setting [6]), 0.231 µM; against human TRPM8 [4] it was 102 nM.

With `O=C(c1sc(-c2ccccc2O)nc1O)N1CCCOC1` [Example 11, [4-hydroxy-2-(2-hydroxyphenyl)-1,3-thiazol-5-yl](1,3-oxazinan-3-yl)methanone], the half-life at 1 μM amounted to 50 min in data set [1] and 51 min in data set [2]. Besides, the IC50 amounted to 0.281 µM on human TRPM8 [3] (setting [5]), 0.256 µM at human TRPM8 [3] (setting [6]) and 106 nM against human TRPM8 [4].

Consider `O=C(c1sc(-c2cccc(F)c2)nc1O)N1CCOCC1` [Example 12, [2-(3-fluorophenyl)-4-hydroxy-1,3-thiazol-5-yl](morpholin-4-yl)methanone], for which the half-life at 1 μM is 32 min in data set [1] and 54 min in data set [2]. Moreover, the values for the IC50 on human TRPM8 [3] (setting [5]), at human TRPM8 [3] (setting [6]) and against human TRPM8 [4] were 0.963 µM, 1.21 µM and 853 nM, respectively.

In the case of `O=C(c1sc(-c2ccccc2O)nc1O)N1CCOCC1` [Example 13, [4-hydroxy-2-(2-hydroxyphenyl)-1,3-thiazol-5-yl](morpholin-4-yl)methanone], the half-life at 1 μM was found to be 36 min in data set [1] and 78 min in data set [2]. Also, the figures for the half-inhibitory concentration (IC50) on human TRPM8 [3] (setting [5]), at human TRPM8 [3] (setting [6]) and on human TRPM8 [4] were 1.12 µM, 1.22 µM and 752 nM, respectively.

For the compound `O=C(c1sc(-c2cccc(F)c2)nc1O)N1CCCCC1` [Example 14, [2-(3-fluorophenyl)-4-hydroxy-1,3-thiazol-5-yl](piperidin-1-yl)methanone], the figures for the half-life at 1 μM in data set [1] and in data set [2] were 65 min and 67 min, respectively. Moreover, the concentration for half-maximal inhibition (IC50) at human TRPM8 [3] (setting [5]) is 1.51 µM; on human TRPM8 [3] (setting [6]), 1.47 µM; at human TRPM8 [4], 985 nM.

As for `O=C(c1sc(-c2cccc(F)c2)nc1O)C1CCCN1` (stereo not drawn) [Example 15, [2-(3-fluorophenyl)-4-hydroxy-1,3-thiazol-5-yl](pyrrolidin-2-yl)methanone], the half-life at 1 μM in data set [1] amounted to 54 min; in data set [2], 65 min. Further, the IC50 was 1.56 µM at human TRPM8 [3] (setting [5]), 1.23 µM at human TRPM8 [3] (setting [6]) and 1310 nM at human TRPM8 [4].

Take `CN1CCCC1C(=O)c1sc(-c2cccc(F)c2)nc1O` (stereo not drawn) [Example 16, [2-(3-fluorophenyl)-4-hydroxy-1,3-thiazol-5-yl](1-methylpyrrolidin-2-yl)methanone]: the half-life at 1 μM was found to be 34 min in data set [1] and 32 min in data set [2]. In addition, the IC50 was 1.34 µM on human TRPM8 [3] (setting [5]), 1.36 µM on human TRPM8 [3] (setting [6]) and 1010 nM on human TRPM8 [4].

Take `O=C(c1ccc[nH]1)c1sc(-c2cccc(F)c2)nc1O` [Example 17, [2-(3-fluorophenyl)-4-hydroxy-1,3-thiazol-5-yl](1H-pyrrol-2-yl)methanone]: the half-life at 1 μM in data set [1] is 82 min; in data set [2], 90 min. Besides, the IC50 turned out to be 0.482 µM on human TRPM8 [3] (setting [5]), 0.564 µM at human TRPM8 [3] (setting [6]) and 124 nM against human TRPM8 [4].

In the case of `Cn1cccc1C(=O)c1sc(-c2cccc(F)c2)nc1O` [Example 18, [2-(3-fluorophenyl)-4-hydroxy-1,3-thiazol-5-yl](1-methyl-1H-pyrrol-2-yl)methanone], the figures for the half-life at 1 μM in data set [1] and in data set [2] were 55 min and 78 min, respectively. In addition, the values for the IC50 at human TRPM8 [3] (setting [5]), at human TRPM8 [3] (setting [6]) and against human TRPM8 [4] were 1.08 µM, 1.09 µM and 1450 nM, respectively.

In the case of `O=C(c1ccco1)c1sc(-c2cccc(F)c2)nc1O` [Example 19, [2-(3-fluorophenyl)-4-hydroxy-1,3-thiazol-5-yl](furan-2-yl)methanone], the half-life at 1 μM in data set [1] amounted to 21 min; in data set [2] it was 42 min. Besides, the IC50 at human TRPM8 [3] (setting [5]) was determined as 1.17 µM; at human TRPM8 [3] (setting [6]) it was 1.15 µM; on human TRPM8 [4] it was 1780 nM.
